Tested on: peripheral blood mononuclear cells (PBMC)
Assay: Microarray analysis (Human Genome U133 plus 2.0 array) of mRNA expression in PBMC treated with compound A
Format: cell-based
Conditions: 100 nM, ratio to control
Excerpt: Since it is not easy to obtain a cancer tissue clinically, the measurement of the marker in hemocytes readily obtainable in peripheral blood would be more useful. Specifically blood was taken from a normal individual (volunteer) and peripheral blood mononuclear cells were purified and treated with compound A, followed by measurement of change in expression of the gene (mRNA) with the microarray (Human Genome […] plus 2.0 array: Affymetrix).
Ficoll-Paque PLUS solution (Amersham, 17-1440-02) was slowly added to the blood taken (with heparin added) from a healthy individual to form a layer underneath the blood (15 ml of Ficoll-Paque PLUS solution was added to 25 ml of blood). After the mixture was centrifuged at 1500 rpm for 30 min, the upper part containing platelets was removed and then a layer containing mononuclear cells was transferred to another tube. The cells were suspended in PBS and centrifuged at 1500 rpm for 5 min, followed by removal of the supernatant. After these steps were repeated twice, the cells were again suspended in RPMI1640 (containing 10% FBS). The number of the cells was then counted.
The cells were suspended in the medium to 5×10^6 cells/ml and plated 1 ml per well of a 24-well plate. Immediately, 111 μl of compound A (ten times more concentrated than the final concentrations) was added to the well (four wells per each concentration tested). The cells were then cultured in an incubator with 5% carbon dioxide gas at 37° C. Two or four hours later, the supernatant was collected and centrifuged at 1500 rpm for five minutes. TRI reagent (SIGMA) (1 ml) was added to each well of the plate from which the supernatant was removed to harvest the cells, which was added to the centrifuged pellet to dissolve. RNA was purified in accordance with the protocol of TRI reagent. RNA was further purified using RNeasy (QIAGEN). Absorbance at 260 nm was measured to quantify an amount of RNA.
A .cel file for each sample was obtained by using GeneChip Operating Software Ver.1.2 (Affymetrix). The RMA method was applied to ten of the .cel files obtained in the microarray experiment. Log signal intensity at a gene level was obtained by normalization of that at a probe level. By subtracting a control value from log signal intensity for each case, the log signal intensity was converted into a log signal ratio to the control. Genes were narrowed down in the basis of a log signal ratio, and a signal value. Specifically, among genes showing that the P value was 5% or less; the expression level in the untreated (control) is 100 or more by signal value; and the expression level when treated with 10 nM of compound A both for two and four hours decreased by 50% or more, genes of which expression level decreased to 25% or less upon the two-hour treatment were picked out. The software used is R2.2.1 (http://www.r-project.org/), affy package 1.8.1 (http://www.bioconductor.org).
Among genes showing, upon the treatment with compound A, that the P value was 5% or less; the expression level in the untreated (control) is 100 or more by signal value; and the expression level when treated with 10 nM of compound A both for two and four hours decreased by 50% or more, genes of which expression level decreased to 25% or less upon the two-hour treatment, and results thereof were shown in Table 2. For each gene evaluated, gene name (Gene Name), abbreviated name (Gene Symbol), accession number (Accession), alias name (Synonym), Probe set number in Human Genome U133 Plus 2.0 Array (Human Genome U133 Plus 2.0 Array Probeset ID), the expression level upon the two-hour treatment with E7107 (E7107 (2 h)), and the expression level upon the four-hour treatment with E7107 (E7107 (4 h)) were respectively shown in Table 2.

Structure (SMILES): CCC(O)C(C)C1OC1CC(C)(O)/C=C/C=C(\C)C1OC(=O)CC(O)CCC(C)(O)C(OC(=O)N2CCN(C3CCCCCC3)CC2)/C=C/C1C (stereo not drawn) [E7107, (8E,12E,14E)-7-((4-Cycloheptylpiperazin-1-yl)carbonyl)oxy-3,6,16,21-tetrahydroxy-6,10,12,16,20-pentamethyl-18,19-epoxytricosa-8,12,14-trien-11-olide]
- AHSA2 mRNA expression level (226665_at) (2 h): 0.20
- ATXN1 mRNA expression level (242230_at) (2 h): 0.25
- C13orf31 mRNA expression level (228937_at) (2 h): 0.04
- C15orf48 mRNA expression level (223484_at) (2 h): 0.02
- CCRL2//LOC642312 mRNA expression level (211434_s_at) (2 h): 0.22
- CLEC5A mRNA expression level (219890_at) (2 h): 0.08
- CSF2RA mRNA expression level (210340_s_at) (2 h): 0.08
- CTSL1 mRNA expression level (202087_s_at) (2 h): 0.20
- DHRS9 mRNA expression level (223952_x_at) (2 h): 0.18
- DOK3 mRNA expression level (223553_s_at) (2 h): 0.30
- FPRL2 mRNA expression level (230422_at) (2 h): 0.05
- GNA15 mRNA expression level (205349_at) (2 h): 0.11
- GPR84 mRNA expression level (223767_at) (2 h): 0.19
- GTF2H1 mRNA expression level (202451_at) (2 h): 0.07
- HNRPA2B1 mRNA expression level (225107_at) (2 h): 0.07
- HPSE mRNA expression level (222881_at) (2 h): 0.13
- IQCG mRNA expression level (235347_at) (2 h): 0.08
- LOC51315 mRNA expression level (233329_s_at) (2 h): 0.11
- MS4A7 mRNA expression level (224358_s_at) (2 h): 0.22
- NLRP12 mRNA expression level (1554952_s_at) (2 h): 0.24
- NRIP3 mRNA expression level (219557_s_at) (2 h): 0.11
- NSMCE4A mRNA expression level (228506_at) (2 h): 0.19
- OLR1 mRNA expression level (210004_at) (2 h): 0.01
- RAPH1 mRNA expression level (225188_at) (2 h): 0.05
- RBBP6 mRNA expression level (212781_at) (2 h): 0.12
- SLC25A19 mRNA expression level (223222_at) (2 h): 0.17
- SLC43A2 mRNA expression level (228918_at) (2 h): 0.17
- TNFAIP6 mRNA expression level (206026_s_at) (2 h): 0.07
- TNS1 mRNA expression level (221748_s_at) (2 h): 0.09
- TRAPPC4 mRNA expression level (217959_s_at) (2 h): 0.08
- Transcribed locus mRNA expression level (230098_at) (2 h): 0.08
- WSB1 mRNA expression level (201294_s_at) (2 h): 0.29
- ZCCHC6 mRNA expression level (220933_s_at) (2 h): 0.14
- AHSA2 mRNA expression level (226665_at) (4 h): 0.23
- ATXN1 mRNA expression level (242230_at) (4 h): 0.13
- C13orf31 mRNA expression level (228937_at) (4 h): 0.06
- C15orf48 mRNA expression level (223484_at) (4 h): 0.01
- CCRL2//LOC642312 mRNA expression level (211434_s_at) (4 h): 0.29
- CLEC5A mRNA expression level (219890_at) (4 h): 0.01
- CSF2RA mRNA expression level (210340_s_at) (4 h): 0.10
- CTSL1 mRNA expression level (202087_s_at) (4 h): 0.13
- DHRS9 mRNA expression level (223952_x_at) (4 h): 0.12
- DOK3 mRNA expression level (223553_s_at) (4 h): 0.35
- FPRL2 mRNA expression level (230422_at) (4 h): 0.02
- GNA15 mRNA expression level (205349_at) (4 h): 0.15
- GPR84 mRNA expression level (223767_at) (4 h): 0.38
- GTF2H1 mRNA expression level (202451_at) (4 h): 0.02
- HNRPA2B1 mRNA expression level (225107_at) (4 h): 0.10
- HPSE mRNA expression level (222881_at) (4 h): 0.11
- IQCG mRNA expression level (235347_at) (4 h): 0.05
- LOC51315 mRNA expression level (233329_s_at) (4 h): 0.06
- MS4A7 mRNA expression level (224358_s_at) (4 h): 0.03
- NLRP12 mRNA expression level (1554952_s_at) (4 h): 0.20
- NRIP3 mRNA expression level (219557_s_at) (4 h): 0.24
- NSMCE4A mRNA expression level (228506_at) (4 h): 0.19
- OLR1 mRNA expression level (210004_at) (4 h): 0.00
- RAPH1 mRNA expression level (225188_at) (4 h): 0.10
- RBBP6 mRNA expression level (212781_at) (4 h): 0.17
- SLC25A19 mRNA expression level (223222_at) (4 h): 0.18
- SLC43A2 mRNA expression level (228918_at) (4 h): 0.08
- TNFAIP6 mRNA expression level (206026_s_at) (4 h): 0.02
- TNS1 mRNA expression level (221748_s_at) (4 h): 0.06
- TRAPPC4 mRNA expression level (217959_s_at) (4 h): 0.04
- Transcribed locus mRNA expression level (230098_at) (4 h): 0.08
- WSB1 mRNA expression level (201294_s_at) (4 h): 0.25
- ZCCHC6 mRNA expression level (220933_s_at) (4 h): 0.06

From US20100086931A1, “METHOD FOR ASSAYING ACTION OF ANTITUMOR AGENT USING DECREASE IN GENE EXPRESSION LEVEL AS INDEX” (Eisai R&D Management Co., Ltd., priority 2007, published 2010)
